Laboratory results reported in patent US20240158348A1, “HERBICIDAL CYCLIC AMIDES N-SUBSTITUTED WITH A HALOALKYLSULFONYLANILIDE GROUP” (FMC Corporation, priority 2021, published 2024).

Key:
Assay type in all cases: in vivo
rice (Oryza sativa) = test: Test D flooded paddy test, rice; parameters: key: 0 = no effect, 100 = complete control; conditions: 250 g ai/ha, Flood; applied to paddy water at 2-leaf stage; visual rating after 13 days; scale 0 (no effect) to 100 (complete control)
Method in brief: (§1)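 2-leaf plants; flood 3 cm over soil; cpd into paddy water; depth maintained; greenhouse 13 d; visual rating vs controls, 0 = no effect, 100 = complete control; dash = no result.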

kochia (Bassia scoparia) [1] = test: Test C postemergence, kochia; conditions: visual injury, 0 to 100 scale (0 no effect, 100 complete control)
Method in brief: (§2)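 Herbicidal effect was estimated visually on a 0–100 scale 10 or 12 days after spraying. Formulation: non-phytotoxic solvent mixture with surfactant. Timing: directed soil spray after sowing, or postemergence on seedlings bearing one or two leaves.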

kochia (Bassia scoparia) [2] = test: Test C preemergence, kochia; conditions: 0 is no effect, 100 is complete control
Method in brief: as §2

corn (Zea mays) = test: Test C preemergence, corn; conditions: 0 is no effect, 100 is complete control
Method in brief: (§3)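 Corn, ragweed and goosegrass were sown in loam/sand and given a preemergence directed soil spray of compounds in a non-phytotoxic solvent with surfactant. Galium was sprayed postemergence at 2–10 cm height, one- to two-leaf stage. After 10 or 12 days in a greenhouse, injury was rated visually against untreated controls on a 0 (no effect) to 100 (complete control) scale.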

[3] = tested on: barnyardgrass (Echinochloa crusgalli); test: Test D flooded paddy test, barnyardgrass; parameters: key: 0 = no effect, 100 = complete control; conditions: 250 g ai/ha, Flood; applied to paddy water at 2-leaf stage; visual rating after 13 days; scale 0 (no effect) to 100 (complete control)
Method in brief: as §1

[4] = tested on: goosegrass (Eleusine indica); test: Test C preemergence, goosegrass; conditions: 0 is no effect, 100 is complete control
Method in brief: as §3

[5] = tested on: horseweed (Erigeron canadensis); test: Test C postemergence, horseweed; conditions: visual injury, 0 to 100 scale (0 no effect, 100 complete control)
Method in brief: as §2

[6] = tested on: ragweed (common ragweed, Ambrosia artemisiifolia); test: Test C postemergence, ragweed; conditions: visual injury, 0 to 100 scale (0 no effect, 100 complete control)
Method in brief: as §2

[7] = tested on: foxtail, giant (giant foxtail, Setaria faberi); test: Test C postemergence, giant foxtail; conditions: visual injury, 0 to 100 scale (0 no effect, 100 complete control)

Row | Compound | Plant response rating, Rice (rice (Oryza sativa)) | Kochia plant response rating (kochia (Bassia scoparia) [1]; 31 g ai/ha Postemergence) | Kochia plant response rating (kochia (Bassia scoparia) [1]; 125 g ai/ha Postemergence) | Plant response rating (0 to 100 scale), Kochia (kochia (Bassia scoparia) [2]; 31 g ai/ha Preemergence) | Plant response rating (0 to 100 scale), Kochia (kochia (Bassia scoparia) [2]; 125 g ai/ha Preemergence) | Plant response rating (0 to 100 scale), Corn (corn (Zea mays); 31 g ai/ha Preemergence) | Plant response rating (0 to 100 scale), Corn (corn (Zea mays); 125 g ai/ha Preemergence) | Plant response rating, Barnyardgrass [3] | Plant response rating (0 to 100 scale), Goosegrass ([4]; 31 g ai/ha Preemergence) | Plant response rating (0 to 100 scale), Goosegrass ([4]; 125 g ai/ha Preemergence) | Horseweed plant response rating ([5]; 31 g ai/ha Postemergence) | Horseweed plant response rating ([5]; 125 g ai/ha Postemergence) | Ragweed plant response rating ([6]; 31 g ai/ha Postemergence) | Ragweed plant response rating ([6]; 125 g ai/ha Postemergence) | Foxtail, Giant plant response rating ([7]; 31 g ai/ha Postemergence) | Foxtail, Giant plant response rating ([7]; 125 g ai/ha Postemergence)
1 | Cc1c(NS(=O)(=O)C(F)(F)F)cc(N2CCC(OCC3CC3)C2=O)c(C)c1F (centres unmarked) [Compound 63] | 45 | 80 | 90 | 90 | 100 | 30 | 100 | 45 | 100 | 100 | 90 | 90 | 40 | 80 | 0 | 30
2 | Cc1c(NS(=O)(=O)C(F)(F)F)cc(N2CCC(OCC3CCC3)C2=O)c(C)c1F (centres unmarked) [Compound 64] | 15 | 50 | 100 | 70 | 90 | 10 | 60 | 25 | 70 | 100 | 10 | 60 | 30 | 70 | 0 | 20
